Like-named read-outs stand apart in the source and are kept apart here.
Assays:
[1] = Antifibrillatory effect in mice: protection against chloroform-induced ventricular fibrillation, oral (Table I); assay type: in vivo, female Swiss albino mice (HAM/ICR)
Method: (§1) The experiments on mice were performed according to a modification of the method described by J. W. Lawson, "Antiarrhythmic activity of some isoquinoline derivatives determined by a rapid screening procedure in the mouse," J. Pharm. Exp. Therap. Vol. 160, pp. 22-31 (1968). This method is based upon the observation that when an unanesthetized, untreated mouse is exposed to chloroform vapor its respiration soon ceases and at that time both electrocardiographic and visual inspection reveal that the cardiac ventricles are fibrillating. If the mouse is treated appropriately with known antiarrhythmic agents prior to exposure to chloroform, the respiratory failure is not accompanied by ventricular fibrillation.

[2] = tested on: mice; assay: Ataxia in mice just before CHCl3 challenge, oral (Table I); assay type: in vivo; settings: LD0.1 dose
Text: Immediately after cessation of respiration each mouse was removed from the beaker, its thorax was opened and its heart was examined for the presence of absence of ventricular fibrillation. The nature of the cardiac rhythm was then confirmed by electrocardiographic recordings. Whenever fibrillation was not evident, the heart was touched with forceps. The heart was considered as fibrillating if fine tremulous movements were present on the surface of the ventricle and persisted for at least 5 seconds after the thoracotomy or the mechanical stimulus. Ventricular fibrillation was considered absent in those animals in which coordinated ventricular activity was evident following such procedures.

[3] = Response of unanesthetized dogs to intravenous infusion on first day after coronary artery ligation (Table III)
Method: In this method the dogs were anesthetized, the heart was exposed, and the anterior descending branch of the left coronary artery was ligated in two stages. The thorax was closed and the dog was allowed to recover from the anesthesia. […] The electrocardiographic, cardiovascular and other drug effects were monitored.
The dosage schedule was: 1st hr.: 15 mg/kg/hr; 2nd hr.: 30 mg/kg/hr; 3rd hr.: 60 mg/kg/hr. Infusions were stopped at the first sign of toxicity other than emesis.

[4] = cited from earlier work
[5] = assay type: in vivo, dogs; settings: for Overt toxicity: convulsions, onset / Overt toxicity: emesis / Overt toxicity: nystagmus / Overt toxicity: other / Overt toxicity: tremors / Overt toxicity: convulsions, duration: po
Text: (§2) Vol. 1, pp. 1318-1328 (1950). […] The electrocardiographic, cardiovascular and other drug effects were monitored.

[6] = Relative potency against chloroform induced fibrillation in mice, subcutaneous (Table IV); assay type: in vivo; settings: 20 min, statistical mean (confidence limits)
Method: as §1
The procedure used was a modification of the method previously described. The modification involved using a standard time of 20 minutes for each test run and four different doses of the same drug. Route of administration was subcutaneous.

[7] = tested on: frog sciatic nerve; assay: In vitro local anesthetic effect on frog sciatic nerve; settings: 20 mM solution, after exposure for 96 min
[8] = Expected antiarrhythmic oral dosage in humans; assay type: in vivo
[9] = mouse, in vivo
[10] = Ventricular arrhythmias in unanesthetized dogs after coronary artery ligation (modified Harris method), 3-amino-2',6'-butyroxylidide (Table VI); assay type: in vivo
Text: as §2
The electrocardiographic, cardiovascular and other drug effects were monitored.

[11] = i.v. infusion, cumulative, one value per dog
[12] = oral and intravenous doses, unanesthetized dogs
[13] = intravenous, first day after ligation

CCN(CC)CC(=O)Nc1c(C)cccc1C [lidocaine, 2-diethylamino-2',6'-acetoxylidide]
Proportion of mice in each group protected against fibrillation at LD0.1 ([1]; 10 min before CHCl3 challenge): 9/10
Proportion of mice in each group protected against fibrillation at LD0.1 ([1]; 20 min before CHCl3 challenge): 10/10
Proportion of mice in each group protected against fibrillation at LD0.1 ([1]; 40 min before CHCl3 challenge): 7/10
Proportion of mice in each group protected against fibrillation at LD0.1 ([1]; 80 min before CHCl3 challenge): 0/10
Proportion of mice in each group having ataxia just before CHCl3 challenge ([2]; 10 min): 0/10
Proportion of mice in each group having ataxia just before CHCl3 challenge ([2]; 20 min): 9/10
Proportion of mice in each group having ataxia just before CHCl3 challenge ([2]; 40 min): 0/10
Proportion of mice in each group having ataxia just before CHCl3 challenge ([2]; 80 min): 0/10
minimal effective dose ([3]; Canis lupus familiaris, iv, read-out: Antiarrhythmic doses (cumul.), i.v. infusion, cumulative, one value per dog): 36 mg/kg
Antiarrhythmic doses (cumul.) [3, 11]: 55 mg/kg
Number of dogs showing antiarrhythmic effect ([3]; i.v. infusion, dogs tested: lidocaine 2, 2-amino-2',6'-propionoxylidide 1, abnormal beats < 5% of total): 2
Duration of antiarrhythmic effect ([3]; i.v. infusion, return of 50% of suppressed abnormal ventricular beats, one value per dog): 5 min
duration of blood levels ([4]; lidocaine): fairly short
oral effectiveness ([4]; oral, due to low levels of the drug in the blood): not orally effective
loss of the drug after oral administration ([4]; oral, probably due to the functions of the liver): pronounced loss of the drug

Cc1cccc(C)c1NC(=O)C(C)N (racemic) [2-amino-2',6'-propionoxylidide]
Proportion of mice in each group protected against fibrillation at LD0.1 ([1]; 20 min before CHCl3 challenge): 9/10
Proportion of mice in each group protected against fibrillation at LD0.1 ([1]; 40 min before CHCl3 challenge): 9/10
Proportion of mice in each group protected against fibrillation at LD0.1 ([1]; 80 min before CHCl3 challenge): 10/10
Proportion of mice in each group protected against fibrillation at LD0.1 ([1]; 160 min before CHCl3 challenge): 9/10
Proportion of mice in each group having ataxia just before CHCl3 challenge ([2]; 20 min): 10/10
Proportion of mice in each group having ataxia just before CHCl3 challenge ([2]; 40 min): 10/10
Proportion of mice in each group having ataxia just before CHCl3 challenge ([2]; 80 min): 8/10
Proportion of mice in each group having ataxia just before CHCl3 challenge ([2]; 160 min): 5/10
adverse reactions ([5]; dog, in vivo): unaccompanied by any discernible adverse reactions
Overt toxicity: convulsions, onset ([5]; dog, in vivo, 50 mg/kg): None
Overt toxicity: emesis ([5]; dog, in vivo, 50 mg/kg): None
Overt toxicity: nystagmus ([5]; dog, in vivo, 50 mg/kg): None
Overt toxicity: other ([5]; dog, in vivo, 50 mg/kg): None
Overt toxicity: tremors ([5]; dog, in vivo, 50 mg/kg): None
Overt toxicity: convulsions, onset ([5]; dog, in vivo, 100 mg/kg): None
Overt toxicity: emesis ([5]; dog, in vivo, 100 mg/kg): None
Overt toxicity: nystagmus ([5]; dog, in vivo, 100 mg/kg): None
Overt toxicity: other ([5]; dog, in vivo, 100 mg/kg): None
Overt toxicity: tremors ([5]; dog, in vivo, 100 mg/kg): None
Overt toxicity: convulsions, onset ([5]; dog, in vivo, 150 mg/kg): None
Overt toxicity: nystagmus ([5]; dog, in vivo, 150 mg/kg): None
Overt toxicity: other ([5]; dog, in vivo, 150 mg/kg): None
Overt toxicity: tremors ([5]; dog, in vivo, 150 mg/kg): None
Overt toxicity: convulsions, duration ([5]; dog, in vivo, 200 mg/kg): > 3 min
Overt toxicity: nystagmus ([5]; dog, in vivo, 200 mg/kg): None
Overt toxicity: other ([5]; dog, in vivo, 200 mg/kg): None
Overt toxicity: convulsions, duration ([5]; dog, in vivo, 300 mg/kg): 17 min
Overt toxicity: convulsions, onset ([5]; dog, in vivo, 300 mg/kg): None
Overt toxicity: emesis ([5]; dog, in vivo, 300 mg/kg): None
Overt toxicity: nystagmus ([5]; dog, in vivo, 300 mg/kg): None
Overt toxicity: other ([5]; dog, in vivo, 300 mg/kg): None
Overt toxicity: tremors ([5]; dog, in vivo, 300 mg/kg): None
suppression of the ventricular arrhythmias [5, 12]: distinct suppression of the ventricular arrhythmias
Maximum antiarrhythmic activity, partial clearing, onset ([5]; oral, cumul. dose 50 mg/kg as HCl, 50-95% reduction of abnormal ventricular beats): None
Toxic doses (cumul.) [3, 11]: 81 mg/kg
Relative potency (ED50 test compound/ED50 lidocaine) [6]: 0.33 (0.20-0.54)
block of the action potential of the nerve [7]: does not block the action potential at all
dosage that should be effective for humans [8]: about 6 grams/day
convulsions incidence ([9]; 251 mg/kg): 34%

CCN(CC)CCNC(=O)c1ccc(N)cc1 [PROCAINAMIDE]
Proportion of mice in each group protected against fibrillation at LD0.1 ([1]; 5 min before CHCl3 challenge): 0/10
Proportion of mice in each group protected against fibrillation at LD0.1 ([1]; 10 min before CHCl3 challenge): 1/10
Proportion of mice in each group protected against fibrillation at LD0.1 ([1]; 20 min before CHCl3 challenge): 0/10
Proportion of mice in each group having ataxia just before CHCl3 challenge ([2]; 5 min): 0/10
Proportion of mice in each group having ataxia just before CHCl3 challenge ([2]; 10 min): 0/10
Proportion of mice in each group having ataxia just before CHCl3 challenge ([2]; 20 min): 0/10

C=C[C@H]1C[N@@]2CC[C@H]1C[C@@H]2[C@@H](O)c1ccnc2ccc(OC)cc12 [QUINIDINE]
Proportion of mice in each group protected against fibrillation at LD0.1 ([1]; 20 min before CHCl3 challenge): 10/10
Proportion of mice in each group protected against fibrillation at LD0.1 ([1]; 40 min before CHCl3 challenge): 9/9
Proportion of mice in each group protected against fibrillation at LD0.1 ([1]; 80 min before CHCl3 challenge): 9/9
Proportion of mice in each group having ataxia just before CHCl3 challenge ([2]; 20 min): 0/10
Proportion of mice in each group having ataxia just before CHCl3 challenge ([2]; 40 min): 2/10
death ([2]; 40 min group): 1 death
death ([2]; 80 min group): 1 death

CCNC(C)C(=O)Nc1c(C)cc(C)cc1C (centres unmarked) [secondary amine]
ataxia incidence [9]: 100%
convulsions incidence [9]: 90%

Cc1cccc(C)c1NC(=O)CC(C)N (centres unmarked) [3-amino-2',6'-butyroxylidide]
Relative potency (ED50 test compound/ED50 lidocaine) [6]: 0.99 (0.60-1.9)
adverse reactions ([10]; dog, in vivo): unaccompanied by any discernible adverse reactions
Toxicity: convulsions [10, 13]: None
Toxicity: deaths [10, 13]: None
suppression of the ventricular arrhythmias [10, 12]: distinct suppression of the ventricular arrhythmias

Source: US4237068A, “Primary aminoacylanilides” (priority 1978, dated 1980)
